Experimental data taken from patent publication US20240252456A1, “ORAL COMPOSITION, SKIN COSMETIC AND HAIR COSMETIC” (MARUZEN PHARMACEUTICALS CO., LTD., priority 2021, published 2024).

Tests used:
[1] = tested on: Normal human dermal fibroblasts (NB1RGB); test: Glutathione production promotive action test (dermal fibroblasts); type: cell-based; conditions: 24 hours
Protocol: Normal human dermal fibroblasts (NB1RGB) were cultured using α-modified Eagle's minimum essential medium (α-MEM) containing 10% FBS, and then the cells were collected by a trypsin treatment. The collected cells were diluted with α-MEM containing 10% FBS to a cell density of 2.0×10^5 cells/mL, then seeded with 200 μL per well in a 48-well plate, and cultured for 48 hours.
After culturing, the medium was removed, 200 μL of each of test samples (Samples 1 to 3, see Table 14 below for final concentrations) dissolved in Dulbecco's modified Eagle's medium (DMEM) containing 1% FBS was added to each well, and culturing was further performed for 24 hours. As a control, culturing was performed in the same manner using DMEM containing 1% FBS to which no test sample was added. After the culturing was completed, the medium was removed from each well, and the cells were washed with 400 μL of PBS(−) buffer solution and then lysed using 150 μL of M-PER (available from PIERCE).
Quantitative determination of total glutathione was performed using 100 μL of the lysed cells. That is, 100 μL of lysed cell extract, 50 μL of 0.1 mol/L phosphate buffer solution, 25 μL of 2 mmol/L NADPH, and 25 μL of 3.2 unit/mL glutathione reductase were added to a 96-well plate and heated at 37° C. for 10 minutes, then 25 μL of 10 mmol/L 5,5′-dithiobis(2-nitrobenzoic acid) was added, and the absorbance at a wavelength of 412 nm was measured until 5 minutes later to determine ΔOD/min. The total glutathione concentration was calculated based on a calibration curve created using oxidized glutathione (available from FUJIFILM Wako Pure Chemical Corporation). After correcting the obtained value to the glutathione value per total protein amount, the glutathione production promotion rate (%) was calculated using the following equation.
Terms in the equation represent the following respective ones. • A: Glutathione amount per total protein amount without sample addition • B: Glutathione amount per total protein amount with test sample addition

[2] = tested on: Normal human liver cells (hepatocytes); test: ATP production promotive action test in hepatocytes; type: cell-based; conditions: 2 hours
Protocol: Normal human liver cells (hepatocytes) were cultured using Dulbecco's modified Eagle's medium (DMEM) containing 10% FBS, and then the cells were collected by a trypsin treatment. The collected cells were diluted with DMEM containing 10% FBS to a cell density of 2.0×10^5 cells/mL, then seeded with 100 μL per well in a 96-well plate, and cultured overnight.
After the culturing was completed, the medium was removed, 100 μL of each of test samples (Samples 1 to 3, see Table 31 below for final concentrations) dissolved in DMEM containing 10% FBS was added to each well, and culturing was performed for 2 hours. As a control, culturing was performed in the same manner using DMEM containing 10% FBS to which no sample was added.
The ATP production promotive action was evaluated by measuring the amount of ATP in cells using the firefly luciferase luminescence method. That is, after culturing for 2 hours, 100 μL of an ATP measurement reagent (available from Toyo B-Net Co., Ltd., trade name “‘Cellular’ ATP measurement reagent”) was added to each well, and chemiluminescence reaction using luciferase was performed. After the reaction, the amount of chemiluminescence proportional to the amount of intracellular ATP was measured using a chemiluminescence measurement device (available from Thermo Fisher Scientific, product name: Varioskan LUX multimode microplate reader). From the obtained results, the ATP production promotion rate (%) was calculated using the following equation.
Terms in the equation represent the following respective ones. • A: Chemiluminescence amount with test sample addition • B: Chemiluminescence amount without sample addition

[3] = tested on: TGM1 mRNA; test: Transglutaminase-1 (TGM1) mRNA expression promotive action test; type: cell-based, human; conditions: NHEK, 24 hours, A/B×100, corrected with GAPDH
Protocol: Normal human neonatal epidermal keratinocytes (NHEK) were precultured using normal human epidermal keratinocyte growth medium (KGM), and the cells were collected by a trypsin treatment. The collected cells were diluted with KGM to a cell density of 15×10^4 cells/mL, then seeded with 2 mL portions in a 6-well plate (30×10^4 cells/well), and cultured overnight under conditions of 37° C. and 5% CO2. After culturing, the medium was replaced with normal human epidermal keratinocyte basal medium (KBM, the above KGM without addition of growth additives (hEGF, BPE, insulin, antibacterial agents, hydrocortisone)), and culturing was further performed for 24 hours.
After culturing for 24 hours, the medium was removed, and 2 mL of each of test samples (Samples 1 to 3, see Table 15 below for final concentrations) dissolved in KBM was added to each well, and culturing was performed under conditions of 37° C. and 5% CO2 for 24 hours. As a control, culturing was performed in the same manner using KBM to which no sample was added. After culturing, the medium was removed, total RNA was extracted using ISOGEN II (available from NIPPON GENE CO., LTD.), each RNA amount was measured using a spectrophotometer, and the total RNA was prepared so as to be 150 ng/μL.
For TGM1 and GAPDH as an internal standard, the expression levels of mRNA were measured using the above total RNA as a template. Detection was performed through a two-step real-time RT-PCR reaction using a real-time PCR device, Thermal Cycler Dice Real Time System III (available from Takara Bio Inc.), with PrimeScript™ RT Master Mix (Perfect Real Time) (available from Takara Bio Inc.) and TB Green® Fast qPCR Mix (available from Takara Bio Inc.). The primers used were those having the sequences 5′-[…]-3′ and 5′-[…]-3′.
The expression level of TGM1 mRNA was obtained as a value corrected with a value of GAPDH based on total RNA preparations prepared from cells cultured “with test sample addition” and “without sample addition.” From the obtained values, the TGM1 mRNA expression promotion rate (%) was calculated using the following equation.
TGM1 mRNA expression promotion rate (%)=A/B×100
Terms in the equation represent the following respective ones. • A: Corrected value with test sample addition • B: Corrected value without sample addition

SMILES	Glutathione production promotion rate ([1]; 62.5 μmol/L) [%]	ATP production promotion rate ([2]; 250 μmol/L) [%]	ATP production promotion rate ([2]; 500 μmol/L) [%]	ATP production promotion rate ([2]; 1000 μmol/L) [%]	TGM1 mRNA expression promotion rate ([3]; 6.25 μmol/L) [%]	TGM1 mRNA expression promotion rate ([3]; 25 μmol/L) [%]	TGM1 mRNA expression promotion rate ([3]; 100 μmol/L) [%]	Glutathione production promotion rate ([1]; 1000 μmol/L) [%]
O=C(O)CCc1ccc(O)c(O)c1 [Sample 1, 3,4-Dihydroxyhydrocinnamic acid]	125.8	128.4	166.8	168.9	214.6	528.6	1617.1	
O=C(O)CCc1ccc(O)cc1 [Sample 2, 3-(4-Hydroxyphenyl)propionic acid]		141.9	159.1	165.1			160.8	131.7
O=C(O)CCc1ccccc1 [Sample 3, 3-phenylpropionic acid]		128.0	136.5	156.1		218.5	174.9	129.9
